# Laboratory results as given in US7897637B2, “Methods of using flavonoids to enhance memory” (The Salk Institute for Biological Studies, priority 2006, dated 2011).
# Legend:
# cAMP = cAMP levels in hippocampal slices (Scintillation Proximity Assay); format: cell-based
# Method: Hippocampal slices were treated with fisetin using the conditions where maximal stimulation of CREB phosphorylation and facilitation of LTP were observed. Briefly, hippocampal slices in ACSF were treated with 1 μM fisetin for 5 minutes (fisetin) or 3 μM rolipram for 30 minutes (rolipram) and then either immediately frozen or treated with […] forskolin for an additional 15 minutes (rolipram+forskolin; fisetin+forskolin) prior to freezing. Additional slices were treated only with 5 μM forskolin for 15 minutes (forskolin). Forskolin, an activator of adenylyl cyclase, and rolipram were used as positive controls. The levels of cAMP in the slices were measured using a Scintillation Proximity Assay and presented as pmole/mg protein±S.D.
# Male C57Bl/6J mice = assay: Object recognition task; format: in vivo; conditions: oral, dose not given; vs vehicle
# Method: The effect of fisetin, 3,3′,4′-THF, and apigenin (5,7,4′-THF) on memory was tested in mice using an object recognition task (Ennaceur and Delacour, Behav. Brain Res., 31:47-59, 1988). Among the alternatives available for testing memory, this assay has proven very effective for measuring CREB-dependent functions (Prickaerts et al., Neurosci., 113:351-61, 2002; Bourtchouladze et al., Proc. Natl. Acad. Sci. USA, 100:10518-22, 2003). In this test, mice are presented with two identical objects during the training period which they explore for a fixed time period. To test for memory, mice are presented one day later with two different objects, one of which was presented previously during the training and is thus familiar to the mice, and the other that is novel. The better a mouse remembers the familiar object, the more time it will spend exploring the novel object. To test the effects of fisetin, 3,3′,4′-THF, or apigenin (5,7,4′-THF) in this memory task, the respective compound was administered orally to the mice before the start of the training period. Rolipram, a phosphodiesterase inhibitor that potentiates memory in this assay (Bourtchouladze et al., Proc. Natl. Acad. Sci. USA, 100:10518-22, 2003), requires intraperitoneal injection and was used as a positive control.
# Male C57Bl/6J mice (Jackson Laboratories) were used and the testing was done by PsychoGenics (Tarrytown, N.Y.). All mice were acclimated to the colony room for at least 2 weeks prior to testing and were tested at an average age of 8 weeks. Mice were randomly assigned across treatment groups with 10 mice in each group. For each dose tested, a 10× solution of fisetin was prepared in 95% ethanol and then diluted with 4 volumes polyethylene glycol 660 hydroxystearate (Solut HS15 from BASF) and 5 volumes phosphate buffered saline. The vehicle was contained the identical ratios of ethanol, Solut HS15 and phosphate buffered saline. All were administered orally 60 minutes prior to training at a volume of 10 ml/kg body weight. Rolipram was dissolved in 10% DMSO and administered intraperitoneally 20 minutes prior to training. The test was performed as previously described by Bourtchouladze et al. (Proc. Natl. Acad. Sci. USA, 100:10518-22, 2003). Briefly, on Day 1 mice were habituated to a circular open field arena for one hour in cage groups of four. Twenty-four (24) hours later, individual mice were placed back in the same arena which now contained two identical objects for a 15 minutes training trial. […] Each animal's test trial was recorded and the first 10 minutes of each session were scored. […] Data were analyzed by a one-way ANOVA followed by post-hoc comparisons with Fisher's test. […]
# ERK2 (p42) = ERK2 (p42) phosphorylation in hippocampal slices (immunoblotting, densitometry); format: cell-based, rat; conditions: inhibitor alone (50 μM PD98059 or 10 μM U0126, 30 minutes)
# Method: (§1) Western blots panels A and B) of hippocampal slices treated with (A) 1 μM fisetin or (B) pretreated for 30 minutes with either 50 μM PD98059 (PD) or 10 μM U0126 (U) before the addition of 1 μM fisetin for 5 minutes, which blots were probed with the indicated antibodies.
# (§2) Hippocampal slices in artificial cerebral spinal fluid (ACSF) were treated with either 1 μM fisetin for 5-20 minutes or pretreated for 30 minutes with either 50 μM PD98059 (PD) or 10 μM U0126 (J) before the addition of 1 μM fisetin for 5 minutes. Equal amounts of protein were analyzed by SDS-PAGE and immunoblotting with antibodies to phospho-ERK and phospho-CRFB along with antibodies to the unphosphorylated forms of the proteins. The average phosphoprotein signal from the blots was quantified by densitometry and normalized to total protein was plotted±S.D.
# ERK [1] = assay: ERK activation in primary cortical neuron cultures (immunoblotting); format: cell-based, rat; conditions: 50 μM PD98059 pretreatment, 10 μM fisetin 4 hours
# Method: (§3) The average phosphoprotein signal from the blots was quantified by densitometry and normalized to total protein,
# (§4) Five (5) day old cortical cultures were next pretreated with 50 μM of the MEK inhibitor, PD98059, before the addition of 10 μM fisetin for 4 hours.
# (§5) Primary cultures of rat cortical neurons were prepared as previously described by Li et al. (Neuron, 19:453-63, 1997, herein incorporated by reference as to the method). Analysis of ERK and CREB phosphorylation was performed using SDS-polyacrylamide gel electrophoresis and immunoblotting as previously described by Sagara et al. (J. Neurochem., 90:1144-1155, 2004) using equal amounts of protein from 5 day old cortical cultures. Blots were scanned and quantified using NIH Image. Results were analyzed using an unpaired Student's t-test.
# CREB [2] = assay: CREB phosphorylation in hippocampal slices (immunoblotting, densitometry); format: cell-based, rat; conditions: inhibitor alone (50 μM PD98059 or 10 μM U0126, 30 minutes)
# Method: as §1, §2
# [3] = system: CA1 area of rat hippocampal slices; assay: Long-term potentiation in CA1 area of hippocampal slices; format: cell-based
# CREB [4] = assay: CREB activation in primary cortical neuron cultures (immunoblotting); format: cell-based, rat; conditions: 50 μM PD98059 pretreatment, 10 μM fisetin 4 hours
# Method: as §3, §4, §5
# ERK1 (p44) = ERK1 (p44) phosphorylation in hippocampal slices (immunoblotting, densitometry); format: cell-based, rat; conditions: inhibitor alone (50 μM PD98059 or 10 μM U0126, 30 minutes)
# Method: as §1, §2
# ERK [5] = assay: ERK activation in PC12 cells (immunoblotting, anti-phospho ERK); format: cell-based; conditions: 50 μM PD98059, 30 minutes pretreatment, flavonoids 4 hours
# Method: PC12 cells were treated with the optimal concentrations for differentiation of the different derivatives for 10 minutes to 6 hours; then the cells were scraped into sample buffer and analyzed by SDS-PAGE and immunoblotting with an antibody specific for phosphorylated ERKs (anti-phospho ERK) and an antibody that detects phosphorylated and unphosphorylated ERKs (anti-ERK),
# ERK activation by the different flavonoids was blocked by pretreatment with PD98059, an inhibitor of MEK, the kinase which phosphorylates ERK. PC12 cells in N2 medium were untreated (control) or treated with 10 μM fisetin, 25 μM 3,3′-DHF, 25 μM 3,4′-DHF, 25 μM 3′,4′-DHF, 5 μM 3,3′,4′-THF, 25 μM 3,7,3′-THF, 25 μM 3,7,4′-THF or 10 μM 7,3′,4′-THF for 4 hours in the absence or presence of 50 μM PD98059 (30 minutes pretreatment). The cells then were scraped into sample buffer and analyzed by SDS-PAGE and immunoblotting with an antibody specific for phosphorylated ERKs (anti-phospho ERK) and an antibody that detects phosphorylated and unphosphorylated ERKs (anti-ERK). […]
# PC12 cells in N2 medium were treated with the flavonoids as described in the text and, after the indicated time periods, the cells were solubilized in SDS sample buffer containing 0.1 mM Na3VO4 and 1 mM phenylmethylsulfonyl fluoride (PMSF), boiled for 5 minutes and either analyzed immediately or stored frozen at −70° C. […]
# HT22 cells = assay: Protection of HT22 cells from oxidative glutamate toxicity (MTT assay); format: cell-based, mouse; conditions: 5 mM glutamate ± 50 μM PD98059, 24 hours
# Description: Fisetin is effective at protecting nerve cells from oxidative stress-induced death (Ishige et al., Free Radic. Biol. Med., 30:433-446, 2001). This Example illustrates the structure-activity relationship between fisetin derivatives and neuroprotection in a model of oxidative glutamate toxicity using mouse HT22 cells. This pathway of programmed cell death is initiated by the addition of glutamate to the extracellular medium. Glutamate inhibits the uptake of cystine which is required for glutathione (GSH) biosynthesis, resulting in the depletion of GSH in neurons (for review see Tan et al., Curr. Top. Med. Chem., 1:497-506, 2001). Subsequently, this decrease in cellular GSH results in the production of reactive oxygen species (ROS) by mitochondria. The ROS accumulation then causes Ca^+2 influx from the extracellular medium which leads to cell death.
# HT22 cells were untreated (Ct) or treated with 10 μM fisetin, 25 μM 3,3′-DHF, 25 μM 3,4′-DHF, 2.5 μM 3′,4′-DHF, 2.5 μM 3,3′,4′-THF 25 μM 3,7,3′-THF, 25 μM 3,7,4′-THF or 10 μM 7,3′,4′-THF in the presence of 5 mM glutamate±50 μM PD98059. Twenty four (24) hours later cell survival was measured by the MTT assay.
# HT22 cells were untreated (Ct) or treated with 10 μM fisetin, 25 μM 3,3′-DHF. […] Protection by all of the other flavonoids was unaffected by BSO.
# Cell viability was determined by a modified version of the 3-(4,5-dimethylthiazol-2-yl)-2,5-diphenyl tetrazolium bromide (MTT) assay based on the standard procedure (Hansen et al., J. Immunol. Meth., 119:203-10, 1989). Briefly, cells were seeded onto 96-well microtiter plates at a density of 5×10^3 cells per well. The next day, the medium was replaced with DMEM supplemented with 7.5% DFCS and the cells were treated with the different flavonoids alone or in the presence of 5 mM glutamate. Twenty four hours later, the medium in each well was aspirated and replaced with fresh medium containing 2.5 μg/ml MTT. After 4 hours of incubation at 37° C., cells were solubilized with 100 μl of a solution containing 50% dimethylformamide and 20% SDS (pH 4.7). The absorbance at 570 nm was measured on the following day with a microplate reader (Molecular Devices). Results obtained from the MTT assay correlated directly with the extent of cell death as confirmed visually. Controls employing wells without cells were used to determine the effects of the agents upon the assay chemistry.
# ERK [6] = conditions: Vanhoutte et al. 1999; English & Sweatt 1997; cited from earlier work
# CREB [7] = conditions: Vanhoutte et al. 1999; cited from earlier work
smiles,measurement,setting,value
"COc1ccc(C2CNC(=O)C2)cc1OC1CCCC1 (stereo not drawn) [rolipram, reference compound]",effect on cAMP levels by itself,"cAMP; 1 μM fisetin 5 minutes, 3 μM rolipram 30 minutes",modestly increased
same,potentiation of the effect of forskolin on cAMP levels,cAMP; then 5 μM forskolin for 15 minutes,significantly potentiated
"O=c1cc(-c2ccc(O)cc2)oc2cc(O)cc(O)c12 [apigenin, reference compound]",object recognition,Male C57Bl/6J mice,did not exhibit significantly better object recognition
"COc1cccc(-c2cc(=O)c3ccccc3o2)c1N [PD98059, reference compound]",p42 phosphoprotein signal normalized to total protein,ERK2 (p42),0.83±0.08
same,effect on activation of ERK by fisetin,ERK [1],blocked
same,CREB phosphoprotein signal normalized to total protein,CREB [2],0.64±0.11
same,effect on fisetin-induced facilitation of LTP,[3]; PD98059 added 10 minutes prior to fisetin,blocked
same,effect on basal synaptic transmission,[3]; no tetanus,no effect
same,effect on activation of CREB by fisetin,CREB [4],blocked
same,p44 phosphoprotein signal normalized to total protein,ERK1 (p44),0.75±0.5
same,effect on ERK activation by the different flavonoids,ERK [5],blocked
same,effect on the ability of fisetin or its derivatives to prevent cell death,HT22 cells,no significant effect
CN[C@H](CC(=O)O)C(=O)O [NMDA],increase in ERK phosphorylation reported following treatment of slices,ERK [6],~2.5 fold
N[C@@H](CCC(=O)O)C(=O)O [glutamate],increase in ERK phosphorylation reported following treatment of slices,ERK [6],1.5-2 fold
same,increase in CREB phosphorylation reported following treatment of slices,CREB [7],~2.5 fold
